Experimental data as given in US20090048112A1, “Novel Herbicides” (SYNGENTA LIMITED, priority 2005, published 2009).

Key:
[1] = tested on: Monocotyledonous and dicotyledonous test plants; assay: Example B1: herbicidal action prior to emergence (pre-emergence), 500 g/ha; assay type: in vivo; conditions: 13 days after application, 0 = no damage, 100 = plants completely dead; for ALOMY herbicidal effect (visual assessment, percentage scale): Alopecurus myosuroides (slender foxtail); for AMARE herbicidal effect (visual assessment, percentage scale): Amaranthus retroflexus (redroot pigweed); for ECHCG herbicidal effect (visual assessment, percentage scale): Echinochloa crus-galli (barnyard grass); for STEME herbicidal effect (visual assessment, percentage scale): Stellaria media (chickweed)
Procedure: Monocotyledonous and dicotyledonous test plants were sown in seed trays in standard compost. The trays were watered twice daily or as required. The chemicals were applied by track sprayer at the soil surface. The application was carried out with an aqueous suspension of the test substances, prepared as a formulation of 50% acetone in water with 0.5% Tween 20™ (CAS RN 9005-64-5), to achieve a field equivalent of 1000 l/ha. The application rate of the test substances was 500 g/ha. A visual assessment of the herbicidal effect was made at 13 days after application. The following percentage scale was used for assessment: 0, 5, 10, 20, 30, 40, 50, 60, 70, 80, 90, 95, 100 (where 0 is no damage to plants and 100 is plants are completely dead).

[2] = tested on: Monocotyledonous and dicotyledonous test plants; assay: Example B3: herbicidal action prior to emergence (pre-emergence), 96-cell seed trays, 1000 g/ha; assay type: in vivo; parameters: key: 0 is no damage to plant; 5 is total damage to plant; conditions: 9 days after application; for AGSTE herbicidal effect (visual assessment, scale 0-5): Agrostis tenius (Colonial bentgrass); for AMARE herbicidal effect (visual assessment, scale 0-5): Amaranthus retroflexus (redroot pigweed); for DIGSA herbicidal effect (visual assessment, scale 0-5): Digitaria sanguinalis (hairy finger-grass); for POATR herbicidal effect (visual assessment, scale 0-5): Poa trivialis (rough blue grass); for SETIT herbicidal effect (visual assessment, scale 0-5): Setaria italica (foxtail millet)
Procedure: Monocotyledonous and dicotyledonous test plants were sown in sterilised standard soil in seed trays each with 96 cells. The seed trays were stored under controlled conditions in a climatic chamber for one day (cultivation at 23° C. during the day and 17° C. at night; 13 hours of light; 50-60% humidity). The chemicals were applied to the soil surface. The application was carried out with an aqueous suspension of the test substances, prepared as a formulation in water with 10% dimethyl sulfoxide (CAS RN 67-68-5), to achieve a field equivalent of 1000 l/ha. The application rate of the test substances was 1000 g/ha. The plants were grown on in the climatic chamber for 9 days (cultivation at 24° C. during the day and 19° C. at night; 13 hours of light; 50-60% humidity). A visual assessment of the herbicidal effect was made at 9 days after application. The following scale was used for assessment: 0, 1, 2, 3, 4 and 5 (where 0 is no damage to plant and 5 is total damage to plant).

Compound | ALOMY herbicidal effect (visual assessment, percentage scale) [1] [%] | AMARE herbicidal effect (visual assessment, percentage scale) [1] [%] | ECHCG herbicidal effect (visual assessment, percentage scale) [1] [%] | STEME herbicidal effect (visual assessment, percentage scale) [1] [%] | AGSTE herbicidal effect (visual assessment, scale 0-5) [2] | AMARE herbicidal effect (visual assessment, scale 0-5) [2] | DIGSA herbicidal effect (visual assessment, scale 0-5) [2] | POATR herbicidal effect (visual assessment, scale 0-5) [2] | SETIT herbicidal effect (visual assessment, scale 0-5) [2]
Cn1nc(C(F)(F)F)c(CSc2ncc(Cl)s2)c1F [Compound No. 1.007] | 95 | 80 | 95 | 40 | – | – | – | – | –
Cn1nc(C(F)(F)F)c(C[S+]([O-])c2ncc(Br)s2)c1F (racemic) [Compound 1.011] | 95 | 95 | 95 | 10 | – | – | – | – | –
Cn1nc(C(F)(F)F)c(C(F)(F)S(=O)(=O)c2ncc(Br)s2)c1OCC(F)(F)F [Compound No. 1.042] | 60 | 100 | 95 | 90 | – | – | – | – | –
Cn1nc(C(F)(F)F)c(CSc2ncc(Cl)s2)c1OCC(F)F [Compound No. 1.115] | – | – | – | – | 5 | 3 | 5 | 0 | 3
Cn1nc(C(F)(F)F)c(C(F)S(=O)(=O)c2ncc(Cl)s2)c1Cl (racemic) [Compound No. 1.045] | 70 | 100 | 100 | 0 | – | – | – | – | –
CCSc1c(CS(=O)(=O)c2ncc(Cl)s2)c(C(F)(F)F)nn1C [Compound No. 1.077, 5-chloro-2-(5-ethylsulfanyl-1-methyl-3-trifluoromethyl-1H-pyrazole-4-ylmethanesulfonyl)-thiazole] | – | – | – | – | 5 | 3 | 5 | 5 | 4
Cn1nc(C(F)(F)F)c(CS(=O)(=O)c2ncc(Br)s2)c1F [Compound No. 1.012] | 70 | 90 | 95 | 0 | – | – | – | – | –
Cn1nc(C(F)(F)F)c(C(Cl)S(=O)(=O)c2ncc(Cl)s2)c1Cl (racemic) [Compound No. 1.043] | 0 | 80 | 95 | 0 | – | – | – | – | –
Cn1nc(C(F)(F)F)c(C(F)S(=O)(=O)c2ncc(Br)s2)c1Cl (racemic) [Compound No. 1.032] | 60 | 80 | 80 | 60 | – | – | – | – | –
Cn1nc(C(F)(F)F)c(C(F)(Cl)S(=O)(=O)c2ncc(Cl)s2)c1Cl (racemic) [Compound No. 1.044] | 40 | 95 | 95 | 90 | – | – | – | – | –
Cn1nc(C(F)(F)F)c(C(F)(Cl)S(=O)(=O)c2ncc(Cl)s2)c1OCC(F)(F)F (racemic) [Compound No. 1.035] | 0 | 95 | 95 | 20 | – | – | – | – | –
Cn1nc(C(F)(F)F)c(CS(=O)(=O)c2ncc(Cl)s2)c1Cl [Compound No. 1.018] | 60 | 100 | 95 | 0 | – | – | – | – | –
Cn1nc(C(F)(F)F)c(CS(=O)(=O)c2nccs2)c1OCC(F)(F)F [Compound 1.049] | 30 | 95 | 95 | 10 | – | – | – | – | –
Cn1nc(C(F)(F)F)c(C[S+]([O-])c2ncc(Cl)s2)c1F (racemic) [Compound 1.008] | 95 | 100 | 95 | 80 | – | – | – | – | –
Cn1nc(C(F)(F)F)c(CS(=O)(=O)c2ncc(Cl)s2)c1F [Compound No. 1.009] | 0 | 95 | 95 | 0 | – | – | – | – | –
Cn1nc(OC(F)F)c(C[S+]([O-])c2ncc(Cl)s2)c1C(F)(F)F (racemic) [Compound 1.054] | 95 | 100 | 95 | 30 | – | – | – | – | –
Cn1nc(C(F)(F)F)c(C(Cl)S(=O)(=O)c2ncc(Cl)s2)c1OCC(F)(F)F (racemic) [Compound No. 1.034] | 70 | 100 | 95 | 40 | – | – | – | – | –
Cn1nc(C(F)(F)F)c(CSc2ncc(Br)s2)c1F [Compound No. 1.010] | 60 | 70 | 80 | 0 | – | – | – | – | –
Cn1nc(C(F)(F)F)c(CS(=O)(=O)c2ncc(Cl)s2)c1OCC(F)(F)F [Compound No. 1.015] | 90 | 95 | 95 | 80 | – | – | – | – | –
Cn1nc(C(F)(F)F)c(C(Cl)S(=O)(=O)c2ncc(Br)s2)c1OCC(F)(F)F (racemic) [Compound No. 1.039] | 60 | 95 | 95 | 0 | – | – | – | – | –
Cn1nc(C(F)(F)F)c(CS(=O)(=O)c2nc(Br)cs2)c1OCC(F)(F)F [Compound 1.029] | 0 | 95 | 0 | 95 | – | – | – | – | –
Cn1nc(C(F)(F)F)c(C[S+]([O-])c2nccs2)c1OCC(F)(F)F (racemic) [Compound 1.048] | 80 | 95 | 95 | 80 | – | – | – | – | –
